# Molecular target: T1, VEGFR2 (Homo sapiens, UniProt P35968)
# T1 construct: gene KDR
# Test: kinase enzyme assay (Reaction Biology), 10-point dose response, […] ATP
# Type: biochemical
# T1 sequence (P35968 20-1356): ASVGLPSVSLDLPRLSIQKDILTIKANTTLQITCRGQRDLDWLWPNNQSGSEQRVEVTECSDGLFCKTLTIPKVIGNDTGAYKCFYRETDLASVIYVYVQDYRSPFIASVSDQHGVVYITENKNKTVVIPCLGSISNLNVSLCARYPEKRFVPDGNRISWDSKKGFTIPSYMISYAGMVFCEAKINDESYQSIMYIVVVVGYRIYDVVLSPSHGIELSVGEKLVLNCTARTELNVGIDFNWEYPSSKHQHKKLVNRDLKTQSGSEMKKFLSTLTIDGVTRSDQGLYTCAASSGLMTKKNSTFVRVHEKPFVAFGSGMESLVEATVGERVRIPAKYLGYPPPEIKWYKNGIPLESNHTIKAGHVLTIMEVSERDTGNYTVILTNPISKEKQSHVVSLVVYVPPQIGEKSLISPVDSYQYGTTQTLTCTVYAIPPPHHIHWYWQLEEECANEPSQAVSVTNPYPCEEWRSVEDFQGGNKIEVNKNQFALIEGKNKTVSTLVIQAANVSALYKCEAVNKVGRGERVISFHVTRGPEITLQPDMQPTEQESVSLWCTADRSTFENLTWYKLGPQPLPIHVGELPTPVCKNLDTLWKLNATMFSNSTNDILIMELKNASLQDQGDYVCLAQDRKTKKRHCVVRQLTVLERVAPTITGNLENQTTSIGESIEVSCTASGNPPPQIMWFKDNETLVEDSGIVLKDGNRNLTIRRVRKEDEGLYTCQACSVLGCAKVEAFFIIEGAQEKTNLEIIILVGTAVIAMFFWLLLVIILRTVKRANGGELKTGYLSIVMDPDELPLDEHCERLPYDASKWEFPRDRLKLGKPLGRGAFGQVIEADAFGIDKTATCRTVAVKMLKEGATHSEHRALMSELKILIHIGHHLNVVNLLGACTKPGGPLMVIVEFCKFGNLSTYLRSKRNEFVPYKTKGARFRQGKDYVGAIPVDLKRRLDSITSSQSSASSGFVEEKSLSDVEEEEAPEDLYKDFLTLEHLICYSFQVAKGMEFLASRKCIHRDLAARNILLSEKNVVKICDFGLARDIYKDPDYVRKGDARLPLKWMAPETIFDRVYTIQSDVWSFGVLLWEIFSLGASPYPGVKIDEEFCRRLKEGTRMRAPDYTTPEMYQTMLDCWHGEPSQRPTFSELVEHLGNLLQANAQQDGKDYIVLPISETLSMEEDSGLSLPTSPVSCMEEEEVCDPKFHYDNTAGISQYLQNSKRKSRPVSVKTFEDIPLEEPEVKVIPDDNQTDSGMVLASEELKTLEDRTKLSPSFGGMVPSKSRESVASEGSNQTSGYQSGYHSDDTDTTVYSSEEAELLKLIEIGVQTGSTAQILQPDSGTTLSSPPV
smiles,measurement,value
Cc1cccc(-c2nc3n(c2-c2ccc4ncnn4c2)CCN3)n1 [TU2218],IC50,4.9 nM
